From US20090105266A1, “Organic compounds” (priority 2007, published 2009) come the findings set out here.

The target of this assay is T1, mGluR5 (Homo sapiens, UniProt P41594).
T1 construct: expressed in transfected cells
T1 sequence (P41594 21-1180 isoform P41594-2 limits assumed): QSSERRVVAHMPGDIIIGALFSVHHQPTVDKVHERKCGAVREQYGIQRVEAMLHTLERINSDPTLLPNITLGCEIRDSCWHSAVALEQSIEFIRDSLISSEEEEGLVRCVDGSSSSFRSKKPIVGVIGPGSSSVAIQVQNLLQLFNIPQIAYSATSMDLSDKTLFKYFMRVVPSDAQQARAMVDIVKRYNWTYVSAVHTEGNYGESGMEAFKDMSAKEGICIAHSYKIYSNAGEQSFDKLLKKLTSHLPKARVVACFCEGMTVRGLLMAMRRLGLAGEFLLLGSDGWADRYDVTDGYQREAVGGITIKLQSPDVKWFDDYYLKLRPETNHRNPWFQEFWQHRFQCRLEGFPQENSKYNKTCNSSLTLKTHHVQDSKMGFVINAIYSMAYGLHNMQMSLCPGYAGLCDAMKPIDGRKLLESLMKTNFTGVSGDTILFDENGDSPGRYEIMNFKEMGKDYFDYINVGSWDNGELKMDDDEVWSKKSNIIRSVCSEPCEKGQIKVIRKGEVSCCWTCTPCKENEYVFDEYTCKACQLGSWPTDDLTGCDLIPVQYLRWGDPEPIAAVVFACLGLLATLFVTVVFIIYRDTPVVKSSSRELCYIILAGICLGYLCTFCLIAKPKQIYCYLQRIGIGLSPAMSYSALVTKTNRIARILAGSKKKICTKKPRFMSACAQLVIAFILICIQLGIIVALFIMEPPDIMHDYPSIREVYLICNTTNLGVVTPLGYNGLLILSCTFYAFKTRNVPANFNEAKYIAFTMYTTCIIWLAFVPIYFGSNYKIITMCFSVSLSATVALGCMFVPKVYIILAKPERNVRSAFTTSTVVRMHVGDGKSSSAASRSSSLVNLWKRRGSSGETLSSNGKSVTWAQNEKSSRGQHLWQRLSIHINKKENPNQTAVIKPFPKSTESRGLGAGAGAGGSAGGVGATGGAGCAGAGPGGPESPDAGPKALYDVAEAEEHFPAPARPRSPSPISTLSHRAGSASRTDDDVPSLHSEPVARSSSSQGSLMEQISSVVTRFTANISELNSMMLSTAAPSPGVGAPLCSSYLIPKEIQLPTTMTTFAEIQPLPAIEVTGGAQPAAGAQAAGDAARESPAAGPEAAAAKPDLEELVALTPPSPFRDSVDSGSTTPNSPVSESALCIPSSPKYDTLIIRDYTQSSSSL
The experiment in a line: inhibition of the glutamate (agonist) induced elevation of the inositol phosphate turnover. As to conditions: inhibition of glutamate induced elevation of inositol phosphate turnover at 0.1 μM. Type of assay: cell-based. The source says:
This can be determined in vitro for example at recombinant human metabotropic glutamate receptors, especially PLC-coupled subtypes thereof such as mGluR5, using different procedures like, for example, measurement of the inhibition of the agonist induced elevation of intracellular Ca^2+ concentration in accordance with L. P. Daggett et al., Neuropharm. Vol. 34, pages 871-886 (1995), P. J. Flor et al., J. Neurochem. Vol. 67, pages 58-63 (1996) or by determination to what extent the agonist induced elevation of the inositol phosphate turnover is inhibited as described by T. Knoepfel et al., Eur. J. Pharmacol. Vol. 288, pages 389-392 (1994), L. P. Daggett et al., Neuropharm. Vol. 67, pages 58-63 (1996) and references cited therein. Isolation and expression of human mGluR subtypes are described in U.S. Pat. No. 5,521,297. Selected agents of the invention show IC50 values for the inhibition of the agonist (e.g. glutamate or quisqualate) induced elevation of intracellular Ca2+ concentration or the agonist (e.g. glutamate or quisqualate) induced inositol phosphate turnover, measured in recombinant cells expressing hmGluR^5a of about 0.1 nM to about 50 μM.
Activity of compounds of the present invention was examined by determination to what extent the agonist induced elevation of the inositol phosphate turnover is inhibited as described by T. Knoepfel et al., Eur. J. Pharmacol. Vol. 288, pages 389-392 (1994), L. P. Daggett et al., Neuropharm. Vol. 67, pages 58-63 (1996) and references cited therein.
The table below represents percentages of inhibition of the glutamate induced elevation of the inositol phosphate turnover at a concentration of 0.1 μM.
The term inhibition denotes the change of the read-out against control, counted positive when it falls. With `CCCn1c(-c2cnc(Nc3ccc(C)nn3)c(Cl)c2)nc2cccc(Cl)c21` [Example 60, [3-Chloro-5-(7-chloro-1-propyl-1H-benzoimidazol-2-yl)-pyridin-2-yl]-(6-methyl-pyridazin-3-yl)-amine], the inhibition at 0.1 µM amounted to 87%.
For the molecule `CCCn1c(-c2cnc(Nc3ccc(Cl)cc3)nc2)nc2cccc(Cl)c21` [Example 91, (4-Chloro-phenyl)-[5-(7-chloro-1-propyl-1H-benzoimidazol-2-yl)-pyrimidin-2-yl]-amine], the inhibition at 0.1 µM turned out to be 100%.
On to `CCCn1c(-c2ccc(Nc3ccc(OC)cc3)nc2)nc2cccc(Cl)c21` [Example 99, [5-(7-Chloro-1-propyl-1H-benzoimidazol-2-yl)-pyridin-2-yl]-(4-methoxy-phenyl)-amine], for which the inhibition at 0.1 µM is 99%.
`CCCn1c(-c2cnc(Nc3cc(C)no3)c(Cl)c2)nc2cccc(Cl)c21` [Example 73, [3-Chloro-5-(7-chloro-1-propyl-1H-benzoimidazol-2-yl)-pyridin-2-yl]-(3-methyl-isoxazol-5-yl)-amine]: the inhibition at 0.1 µM is 98%.
On the same count and under the same terms, as for `CCCn1c(-c2ccc(Nc3ccc(C)cc3)c(Cl)c2)nc2cccc(Cl)c21` [Example 95, [2-Chloro-4-(7-chloro-1-propyl-1H-benzoimidazol-2-yl)-phenyl]-p-tolyl-amine], the figure is 63%; as for `CCCn1c(-c2cnc(Nc3ccc(C)nc3)nc2)nc2cccc(Cl)c21` [Example 92, [5-(7-Chloro-1-propyl-1H-benzoimidazol-2-yl)-pyrimidin-2-yl]-(6-methyl-pyridin-3-yl)-amine], 99%; as for `CCCn1c(-c2cnc(Nc3cccc(F)c3)c(Cl)c2)nc2cccc(Cl)c21` [Example 55, [3-Chloro-5-(7-chloro-1-propyl-1H-benzoimidazol-2-yl)-pyridin-2-yl]-(3-fluoro-phenyl)-amine], 63%.
Regarding `CCCn1c(-c2cnc(Nc3ccc(OC)cc3)c(Cl)c2)nc2ccccc21` [Example 114, [3-Chloro-5-(1-propyl-1H-benzoimidazol-2-yl)-pyridin-2-yl]-(4-methoxy-phenyl)-amine], the inhibition at 0.1 µM was determined as 99%.
On to `CCCn1c(-c2cnc(Nc3ccc(NC(C)=O)nc3)c(Cl)c2)nc2ccc(F)cc21` [Example 71, N-{5-[3-Chloro-5-(6-fluoro-1-propyl-1H-benzoimidazol-2-yl)-pyridin-2-ylamino]-pyridin-2-yl}-acetamide], for which the inhibition at 0.1 µM came out at 20%.
With `CCCn1c(-c2cnc(Nc3ccc(N)nc3)c(Cl)c2)nc2ccc(F)cc21` [Example 71b, N-5-[3-Chloro-5-(6-fluoro-1-propyl-1H-benzoimidazol-2-yl)-pyridin-2-yl]-pyridine-2,5-diamine], the “mGluR5-activity in [%] inhibition at 0.1 μM” value came to 100%.
For the molecule `CCCn1c(-c2cnc(Nc3ccc(C#N)cc3)c(Cl)c2)nc2cccc(Cl)c21` [Example 56, 4-[3-Chloro-5-(7-chloro-1-propyl-1H-benzoimidazol-2-yl)-pyridin-2-ylamino]-benzonitrile], the inhibition at 0.1 µM came out at 100%.
As to `CCCn1c(-c2cnc(Nc3ccc(Cl)cc3)c(Cl)c2)nc2cccc(Cl)c21` [Example 52, [3-Chloro-5-(7-chloro-1-propyl-1H-benzoimidazol-2-yl)-pyridin-2-yl]-(4-chloro-phenyl)-amine], the inhibition at 0.1 µM was determined as 99%.
As to `CCCn1c(-c2ccc(Nc3ccc(Cl)cc3)nc2)nc2ccc(F)cc21` [Example 104, (4-Chloro-phenyl)-[5-(6-fluoro-1-propyl-1H-benzoimidazol-2-yl)-pyridin-2-yl]-amine], the inhibition at 0.1 µM turned out to be 84%.
Still for that read-out and setting: as for `CCCn1c(-c2cnc(Nc3cnc(C)cn3)c(Cl)c2)nc2cccc(Cl)c21` [Example 62, [3-Chloro-5-(7-chloro-1-propyl-1H-benzoimidazol-2-yl)-pyridin-2-yl]-(5-methyl-pyrazin-2-yl)-amine], the figure is 99%; as for `Cc1ccc(Nc2ncc(-c3nc4cccc(Cl)c4n3CC(C)C)cc2Cl)cn1` [Example 114c, [3-chloro-5-(7-chloro-1-isobutyl-1H-benzoimidazol-2-yl)-pyridin-2-yl]-(6-methyl-pyridin-3-yl)-amine], 111%.
Regarding `CCCn1c(-c2ccc(Nc3ccc(OC)cc3)cc2)nc2cccc(Cl)c21` [Example 82, [4-(7-Chloro-1-propyl-1H-benzoimidazol-2-yl)-phenyl]-(4-methoxy-phenyl)-amine], the inhibition at 0.1 µM came out at 88%.
On the same count and under the same terms, as for `CCCn1c(-c2ccc(Nc3ccc(OC)cc3)nn2)nc2cccc(Cl)c21` [Example 86, [6-(7-Chloro-1-propyl-1H-benzoimidazol-2-yl)-pyridazin-3-yl]-(4-methoxy-phenyl)-amine], the figure is 60%.
For the molecule `CCCn1c(-c2ccc(Nc3ccc(OC)cc3)c(Cl)c2)nc2cccc(Cl)c21` [Example 97, [2-Chloro-4-(7-chloro-1-propyl-1H-benzoimidazol-2-yl)-phenyl]-(4-methoxy-phenyl)-amine], the inhibition at 0.1 µM turned out to be 98%.
For the molecule `CCCn1c(-c2cnc(Nc3ccc(N(C)C)nc3)c(Cl)c2)nc2ccc(F)cc21` [Example 68, N-5-[3-Chloro-5-(6-fluoro-1-propyl-1H-benzoimidazol-2-yl)-pyridin-2-yl]-N-2,N-2-dimethyl-pyridine-2,5-diamine], the “mGluR5-activity in [%] inhibition at 0.1 μM” value is reported as 43%.
As for `Cc1ccc(Nc2ncc(-c3nc4ccccc4n3CC(C)C)cc2Cl)cn1` [Example 20, [3-Chloro-5-(1-isobutyl-1H-benzoimidazol-2-yl)-pyridin-2-yl]-(6-methyl-pyridin-3-yl)-amine], the inhibition at 0.1 µM worked out at 98%.
On to `Cc1ccc(Nc2ccc(-c3nc4cccc(Cl)c4n3CC(C)C)cn2)cn1` [Example 111, [5-(7-Chloro-1-isobutyl-1H-benzoimidazol-2-yl)-pyridin-2-yl]-(6-methyl-pyridin-3-yl)-amine], for which the inhibition at 0.1 µM came to 97%.
The same measure, in the same setting: as for `CCCn1c(-c2ccc(Nc3ccc(C)nc3)nc2)nc2ccc(F)cc21` [Example 105, [5-(6-Fluoro-1-propyl-1H-benzoimidazol-2-yl)-pyridin-2-yl]-(6-methyl-pyridin-3-yl)-amine], the figure is 85%.
The same measure, in the same setting: as for `CCCn1c(-c2ccc(Nc3ccc(C)cc3)cc2)nc2ccc(F)cc21` [Example 83, [4-(6-Fluoro-1-propyl-1H-benzoimidazol-2-yl)-phenyl]-p-tolyl-amine], the figure is 52%.
With `CCCn1c(-c2cnc(Nc3ccc(C)nc3)c(Cl)c2)nc2ccc(C)cc21` [Example 23, [3-Chloro-5-(6-methyl-1-propyl-1H-benzoimidazol-2-yl)-pyridin-2-yl]-(6-methyl-pyridin-3-yl)-amine], the inhibition at 0.1 µM is 84%.
As to `Cc1ccc(Nc2ccc(-c3nc4cccc(Cl)c4n3CC(C)C)cn2)cc1` [Example 108, [5-(7-Chloro-1-isobutyl-1H-benzoimidazol-2-yl)-pyridin-2-yl]-p-tolyl-amine], the inhibition at 0.1 µM came out at 98%.
For the molecule `CCCn1c(-c2cnc(Nc3ccc(CO)nc3)c(Cl)c2)nc2cccc(Cl)c21` [Example 75f, {5-[3-Chloro-5-(7-chloro-1-propyl-1H-benzoimidazol-2-yl)-pyridin-2-ylamino]-pyridin-2-yl}-methanol], the inhibition at 0.1 µM was determined as 92%.
For `CCCn1c(-c2cnc(Nc3ccc(OC)nc3)c(Cl)c2)nc2cccc(Cl)c21` [Example 74, [3-Chloro-5-(7-chloro-1-propyl-1H-benzoimidazol-2-yl)-pyridin-2-yl]-(6-methoxy-pyridin-3-yl)-amine], the inhibition at 0.1 µM was 99%.
Regarding `CCCn1c(-c2ccc(Nc3ccc(C)nc3)nn2)nc2cccc(Cl)c21` [Example 88, [6-(7-Chloro-1-propyl-1H-benzoimidazol-2-yl)-pyridazin-3-yl]-(6-methyl-pyridin-3-yl)-amine], the inhibition at 0.1 µM is 97%.
As for `Cc1ccc(Nc2ccc(-c3nc4cccc(Cl)c4n3CC(C)C)cc2Cl)cn1` [Example 116, [2-Chloro-4-(7-Chloro-1-isobutyl-1H-benzoimidazol-2-yl)-phenyl]-(6-methyl-pyridin-3-yl)-amine], the inhibition at 0.1 µM was 100%.
Turning to `CCCn1c(-c2cnc(Nc3ccc(OC)cc3)c(Cl)c2)nc2cccc(Cl)c21` [Example 75, [3-Chloro-5-(7-chloro-1-propyl-1H-benzoimidazol-2-yl)-pyridin-2-yl]-(4-methoxy-phenyl)-amine], the inhibition at 0.1 µM was determined as 99%.
For the molecule `CCCn1c(-c2cnc(Nc3cccc(F)c3F)c(Cl)c2)nc2cccc(Cl)c21` [Example 58, [3-Chloro-5-(7-chloro-1-propyl-1H-benzoimidazol-2-yl)-pyridin-2-yl]-(2,3-difluoro-phenyl)-amine], the inhibition at 0.1 µM turned out to be 40%.
Same read-out and setting: as for `CCCn1c(-c2ccc(Nc3ccc(OC)cc3)nc2)nc2cccc(F)c21` [Example 114d, [5-(7-fluoro-1-propyl-1H-benzoimidazol-2-yl)-pyridin-2-yl]-(4-methoxy-phenyl)-amine], the figure is 82%; as for `CCCn1c(-c2cnc(Nc3ccc4ncccc4c3)c(Cl)c2)nc2cccc(Cl)c21` [Example 64, [3-Chloro-5-(7-chloro-1-propyl-1H-benzoimidazol-2-yl)-pyridin-2-yl]-quinolin-6-yl-amine], 17%.
